US20250177392A1, “BROAD SPECTRUM INHIBITORS OF CYTOMEGALOVIRUS” (MICROBIOTIX, INC., priority 2022, published 2025)

Key:
HHV-6B Z29 = assay: Herpes virus panel neutralization, HHV-6B; assay type: cell-based, Human herpes virus 6B
Description: (§1) To determine the specificity of MBX-4992, additional neutralization experiments were conducted using a panel of herpes viruses performed in the presence of MBX-4992. […] Collectively, the antiviral activity of MBX-4992 is equivalent to that of GCV indicating specific inhibition of CMV replication.

HCMV AD169 = assay: Herpes virus panel neutralization, HCMV AD169; assay type: cell-based, Human cytomegalovirus
Description: as §1

[1] = tested on: TR, Towne, and TB40/E strains; assay: CMV infection assay of MBXC-4336 with further strains; assay type: cell-based, Human cytomegalovirus; conditions: NHDF cells, 24 hpi, IE1 (FIG. 11F-H)
Description: HCMV strains AD169 (A), TB40/E Flag YFP (B), Towne (C and G), TR (D and F), Merlin (E), and TB40/E (H) infection of NHDF cells pre-treated with DMSO and 0, 1, 5, or 20 μM MBX-4992 or MBXC-4336, respectively, were assessed at 24 hpi based on IE1 expression by anti-IE1 immunostain. TB40/E (I) (MOI 0.25) and AD169^R (J) (MOI 0.25) infection of HTR-svNeo cells treated with DMSO and 0, 1, 5, or 20 μM MBX-4992 were assessed at 24 hpi based on IE1 expression by anti-IE1 immunostain. The % infection was determined using DMSO-treated as 100% infection. The error bars represent values in triplicate. Statistical tests were performed using ordinary one-way ANOVA with multiple comparisons to DMSO treated cells as a control and a Dunnett's post-test *, p<0.05; **, p<0.01; ****, p<0.0001.
Fibroblasts and ARPE-19 cells (10^4) were plated in 96-well plates (Greiner, Monroe, NC). […] At 18 hours post infection (hpi) cells were stained using a rabbit anti-IE1 antibody followed by an anti-rabbit Alexa 647 and measured using a Celigo Cytometer (Parsons et al., Antiviral Res., 193:105124 (2021); Stein et al., Nat. Commun., 10:2699 (2019)). Using the DMSO treated cells as 100% infection, the percent infection of the NAPA compound-treated cells was determined. […]

Compound	SI (HHV-6B Z29)	IC50 (HHV-6B Z29; Human betaherpesvirus 6B)	SI (HCMV AD169; HCMV AD169)	IC50 (HCMV AD169; Human betaherpesvirus 5, AD169)	effectiveness against further strains [1]
Cc1nc(Nc2ccc(NC(=O)c3ccco3)cc2)cc(N2CCCC2)n1 [MBX-4992]	>2	43.7 µM	>88	1.7 µM	–
Cc1nc(Nc2cccc(NC(=O)c3ccco3)c2)cc(N2CCCCC2)n1 [MBXC-4336]	–	–	–	–	effectiveness of MBXC-4336 was validated
